# Earlier results in patent publication US5942547A, “2-Deoxystreptamine derivatives, pharmaceutical compositions thereof and therapeutic methods using same” (priority 1996, dated 1999).
# Tested on: REV/RRE interaction
compound,measurement,value
NC[C@@H]1O[C@H](O[C@H]2[C@@H](O)[C@H](O[C@@H]3[C@@H](O)[C@H](N)C[C@H](N)[C@H]3O[C@H]3O[C@H](CN)[C@@H](O)[C@H](O)[C@H]3N)O[C@@H]2CO)[C@H](N)[C@@H](O)[C@@H]1O [neomycin B],disruption of the REV/RRE interaction (in words),could disrupt the REV/RRE interaction
